This is an account of results in patent US9802899B2, “Heterocyclic compounds as pesticides” (BAYER CROPSCIENCE AG, priority 2012, dated 2017).

A short description of the series: Determination of the log P values by HPLC (formic acid method). The class given is physicochemical. As to conditions: reversed-phase column (C 18), acidic range (pH 3.4), 55° C.; for chromatographic logP: reversed-phase HPLC column (C 18). The protocol: 1) Description of Method for Determination of the Log P Values (Formic Acid Method)
Eluents for determination in the acidic range (pH 3.4):
Eluent A: acetonitrile+1 ml of formic acid/liter. Eluent B: water+0.9 ml of formic acid/liter.
The lambda max values were determined in the maxima of the chromatographic signals using the UV spectra from 200 nm to 400 nm.

Regarding `O=C(Nc1ccn(-c2cc(F)ccc2F)n1)c1ccsc1I` [Compound I-1-219], the “log P” value was 3.25.
Regarding `O=C(Nc1ccn(-c2cc(F)ccc2F)n1)c1ncccc1Cl` [Compound I-1-220], the “log P” value is reported as 3.00.
For `O=C(Nc1ccn(-c2cc(F)ccc2F)n1)c1occc1I` [Compound I-1-222], the “log P” value is given as 3.14.
The same measure, in the same setting: next, `O=C(Nc1ccn(-c2cc(F)cnc2F)n1)c1ccccc1C(F)(F)F` [Compound I-1-224]: 2.72; `O=C(Nc1ccn(-c2cc(F)cnc2F)n1)c1ccccc1Cl` [Compound I-1-225]: 2.59; `O=C(Nc1ccn(-c2c(Cl)cccc2Cl)n1)c1cccnc1OC(F)(F)F` [Compound I-1-226]: 3.21.
`Nc1cc(F)c(-n2ccc(NC(=O)c3ccccc3C(F)(F)F)n2)c(F)c1` [Compound I-1-227, N-[1-(4-Amino-2,6-difluorophenyl)-1H-pyrazol-3-yl]-2-(trifluoromethyl)benzamide]: the chromatographic logP worked out at 2.32.
Molecule `N#Cc1cc(F)c(-n2ccc(NC(=O)c3ccccc3C(F)(F)F)n2)c(F)c1` [Compound I-1-228, N-[1-(4-Cyano-2,6-difluorophenyl)-1H-pyrazol-3-yl]-2-(trifluoromethyl)benzamide] showed a chromatographic logP of 2.66.
The molecule `O=C(Nc1ccn(-c2c(F)cc([N+](=O)[O-])cc2F)n1)c1ccccc1C(F)(F)F` [Compound I-1-229, N-[1-(2,6-Difluoro-4-nitrophenyl)-1H-pyrazol-3-yl]-2-(trifluoromethyl)benzamide] registered a chromatographic logP of 2.86.
In turn, `O=C(Nc1ccn(-c2c(F)cc(C(F)(F)F)cc2F)n1)c1ccccc1C(F)(F)F` [Compound I-1-230, N-{1-[2,6-Difluoro-4-(trifluoromethyl)phenyl]-1H-pyrazol-3-yl}-2-(trifluoromethyl)benzamide] showed a chromatographic logP of 3.39.
Consider `Cc1nn(C(F)F)c(C(=O)Nc2ccn(-c3c(F)cccc3F)n2)c1F` [Compound I-1-231], for which the “log P” value turned out to be 2.89.
In the case of `Cc1cc(C(=O)Nc2ccn(-c3c(F)cccc3F)n2)n(C)n1` [Compound I-1-232], the “log P” value stood at 2.10.
Regarding `Cc1nn(C)c(C(=O)Nc2ccn(-c3c(F)cccc3F)n2)c1[N+](=O)[O-]` [Compound I-1-233], the log partition coefficient (log P) is 2.23.
As for `Cc1c([N+](=O)[O-])c(C(=O)Nc2ccn(-c3c(F)cccc3F)n2)nn1C` [Compound I-1-234], the “log P” value was found to be 2.03.
Turning to `CCn1ncc(I)c1C(=O)Nc1ccn(-c2c(F)cccc2F)n1` [Compound I-1-235], the “log P” value was determined as 2.76.
For the molecule `Cn1ncnc1C(=O)Nc1ccn(-c2c(F)cccc2F)n1` [Compound I-1-236], the “log P” value was 1.93.
On the same count and under the same terms, next, `Cn1nc(C(F)(F)C(F)(F)F)c(C(F)(F)F)c1C(=O)Nc1ccn(-c2c(F)cccc2F)n1` [Compound I-1-237]: 3.84.
Still for that read-out and setting: next, `Cn1nc(C(F)(F)F)c(C(=O)Nc2ccn(-c3c(F)cccc3F)n2)c1C(F)(F)F` [Compound I-1-238]: 2.99; `Cn1ccc([N+](=O)[O-])c1C(=O)Nc1ccn(-c2c(F)cccc2F)n1` [Compound I-1-239]: 2.50; `Cn1cc(C(=O)Nc2ccn(-c3c(F)cccc3F)n2)c(C(F)(F)F)c1` [Compound I-1-240]: 2.52.
Consider `Cn1cc([N+](=O)[O-])c(C(=O)Nc2ccn(-c3c(F)cccc3F)n2)n1` [Compound I-1-241], for which the “log P” value is 1.90.
Turning to `Cn1cnc(C(=O)Nc2ccn(-c3c(F)cccc3F)n2)c1[N+](=O)[O-]` [Compound I-1-242], the “log P” value was determined as 1.81.
Same read-out and setting: next, `O=C(Nc1ccn(-c2c(F)cccc2F)n1)c1ccc[n+]([O-])c1C(F)(F)F` [Compound I-1-243]: 1.80; `CCC(C)n1ncc(Cl)c1C(=O)Nc1ccn(-c2c(F)cccc2F)n1` (centres unmarked) [Compound I-1-244]: 3.58.
For `CCC(C)n1ncc(I)c1C(=O)Nc1ccn(-c2c(F)cccc2F)n1` (centres unmarked) [Compound I-1-245], the “log P” value worked out at 3.47.
With `O=C(Nc1ccn(-c2c(F)cccc2F)n1)c1cccnc1CC(F)(F)F` [Compound I-1-246], the “log P” value is 2.35.
The same measure, in the same setting: in the case of `O=C(Nc1ccn(-c2c(F)cccc2F)n1)c1ccccc1OC(F)F` [Compound I-1-247] it was 2.74.
In the case of `CSc1ncccc1C(=O)Nc1ccn(-c2c(F)cccc2F)n1` [Compound I-1-249], the “log P” value turned out to be 2.38.
`O=C(Nc1ccn(-c2c(F)cccc2F)n1)c1cccnc1OC(F)(F)F` [Compound I-1-250]: the log partition coefficient (log P) amounted to 2.77.
With `O=C(Nc1nn(-c2c(F)cccc2F)cc1Cl)c1ccccc1C(F)(F)F` [Compound I-1-251], the “log P” value was 2.73.
For `O=C(Nc1nn(-c2c(F)cccc2F)cc1Br)c1ccccc1C(F)(F)F` [Compound I-1-252], the “log P” value was determined as 2.77.
In the case of `CN(C(=O)c1ccccc1C(F)(F)F)c1ccn(-c2c(F)cccc2F)n1` [Compound I-1-253], the “log P” value is recorded as 3.08.
On to `CCN(C(=O)c1ccccc1C(F)(F)F)c1ccn(-c2c(F)cccc2F)n1` [Compound I-1-254], for which the “log P” value is listed as 3.31.
Take `C=CCN(C(=O)c1ccccc1C(F)(F)F)c1ccn(-c2c(F)cccc2F)n1` [Compound I-1-255]: the “log P” value is 3.44.
Consider `O=C(Nc1nn(-c2c(F)cccc2F)cc1I)c1ccccc1C(F)(F)F` [Compound I-1-257], for which the lipophilicity (log P) is recorded as 2.86.
The same measure, in the same setting: next, `CC(C)N(C(=O)c1ccccc1C(F)(F)F)c1ccn(-c2c(F)cccc2F)n1` [Compound I-1-260]: 3.50.
Consider `CCCN(C(=O)c1ccccc1C(F)(F)F)c1ccn(-c2c(F)cccc2F)n1` [Compound I-1-261], for which the “log P” value was found to be 3.64.
The same measure, in the same setting: next, `O=C(c1ccccc1C(F)(F)F)N(CC(F)F)c1ccn(-c2c(F)cccc2F)n1` [Compound I-1-264]: 3.38; `O=C(c1ccccc1C(F)(F)F)N(CC(F)(F)F)c1ccn(-c2c(F)cccc2F)n1` [Compound I-1-265]: 3.59; `O=C(Nc1ccn(-c2c(F)cccc2F)n1)c1cccc(Cl)c1Cl` [Compound I-1-266]: 2.93.
Regarding `O=C(Nc1ccn(-c2c(F)cccc2F)n1)c1c(Cl)cccc1Cl` [Compound I-1-267], the lipophilicity (log P) came out at 2.72.
As to `Cc1cccc(C)c1C(=O)Nc1ccn(-c2c(F)cccc2F)n1` [Compound I-1-268], the “log P” value is listed as 2.68.
Regarding `CC(=O)Nc1ccccc1C(=O)Nc1ccn(-c2c(F)cccc2F)n1` [Compound I-1-269], the lipophilicity (log P) stood at 2.20.
In the case of `CC(=O)c1ccccc1C(=O)Nc1ccn(-c2c(F)cccc2F)n1` [Compound I-1-270], the “log P” value is reported as 2.38.
`COc1cccc(Cl)c1C(=O)Nc1ccn(-c2c(F)cccc2F)n1` [Compound I-1-271]: the “log P” value is reported as 2.47.
For `N#Cc1ccccc1C(=O)Nc1ccn(-c2c(F)cccc2F)n1` [Compound I-1-272], the “log P” value is reported as 2.48.
In the case of `O=C(Nc1ccn(-c2c(F)cccc2F)n1)c1ccccc1C1CC1` [Compound I-1-273], the “log P” value was 2.89.
Same read-out and setting: in the case of `CCc1cccc(F)c1C(=O)Nc1ccn(-c2c(F)cccc2F)n1` [Compound I-1-274] it was 2.85; in that of `CCc1ncccc1C(=O)Nc1ccn(-c2c(F)cccc2F)n1` [Compound I-1-275], 1.47.
The same measure, in the same setting: next, `O=C(Nc1ccn(-c2c(F)cccc2F)n1)c1c(F)cccc1C(F)(F)F` [Compound I-1-276]: 2.72; `O=C(Nc1ccn(-c2c(F)cccc2F)n1)c1c(F)cccc1I` [Compound I-1-277]: 2.74; `O=C(Nc1ccn(-c2c(F)cccc2F)n1)c1ccccc1F` [Compound I-1-278]: 2.60.
Still for that read-out and setting: next, `O=C(Nc1ccn(-c2c(F)cccc2F)n1)c1cccnc1F` [Compound I-1-279]: 2.00; `Cc1occc1C(=O)Nc1ccn(-c2c(F)cccc2F)n1` [Compound I-1-281]: 2.43; `O=C(Nc1ccn(-c2c(F)cccc2F)n1)c1sccc1C(F)F` [Compound I-1-282]: 2.80.
Turning to `Cn1nc(C(F)F)c(C(=O)Nc2ccn(-c3c(F)cccc3F)n2)c1F` [Compound I-1-283], the “log P” value was 2.27.
For the molecule `CCc1nccnc1C(=O)Nc1ccn(-c2c(F)cccc2F)n1` [Compound I-1-285], the lipophilicity (log P) was found to be 2.65.
Turning to `O=C(Nc1ccn(-c2ncc(F)cc2Cl)n1)c1c(F)cccc1F` [Compound I-1-286], the “log P” value is 2.33.
For `O=C(Nc1ccn(-c2c(F)cccc2F)n1)c1cccc(F)c1C(F)(F)F` [Compound I-1-287], the log partition coefficient (log P) was determined as 2.76.
With `O=C(Nc1ccn(-c2c(F)cccc2F)n1)c1occc1I` [Compound I-1-288], the “log P” value came out at 2.64.
As for `CC(C)Cc1nn(C)c(C(=O)Nc2ccn(-c3c(F)cccc3F)n2)c1[N+](=O)[O-]` [Compound I-1-289], the “log P” value stood at 3.19.
Same read-out and setting: next, `CC(C)c1nn(C)c(C(=O)Nc2ccn(-c3c(F)cccc3F)n2)c1[N+](=O)[O-]` [Compound I-1-290]: 2.93.
Regarding `Cc1noc(C(F)(F)F)c1C(=O)Nc1ccn(-c2c(F)cccc2F)n1` [Compound I-1-291], the lipophilicity (log P) was found to be 2.80. The log P values of the last two molecules are within 0.2 log units of each other.
Regarding `Cn1nc(C(C)(C)C)c([N+](=O)[O-])c1C(=O)Nc1ccn(-c2c(F)cccc2F)n1` [Compound I-1-292], the “log P” value stood at 3.33.
For `Cn1nc(C(C)(C)C)c(Cl)c1C(=O)Nc1ccn(-c2c(F)cccc2F)n1` [Compound I-1-293], the “log P” value came out at 4.15.
In the case of `Cc1nn(C)c(C(=O)Nc2ccn(-c3c(F)cccc3F)n2)c1C(F)F` [Compound I-1-294], the “log P” value is 2.34.
Turning to `O=C(Nc1ccn(-c2c(F)cccc2F)n1)c1cncnc1C(F)(F)F` [Compound I-1-295], the “log P” value is on record as 2.25.
Take `O=C(Nc1ccn(-c2c(F)cccc2F)n1)c1c(C(F)(F)F)cc(F)c(F)c1F` [Compound I-1-296]: the “log P” value came to 3.14.
